{
  "source": "patent US11801247B1",
  "about": "“Method of treating trypanosomiasis” (KING FAISAL UNIVERSITY, priority 2023, dated 2023)",
  "key": {"T. brucei": {"tested_on": "T. brucei", "conditions": "cited from earlier work; for potency against T. brucei: thymidine and folate-deficient medium"}, "six Trypanosoma species": {"tested_on": "six Trypanosoma species", "test": "Anti-trypanosomal assay, six trypanosomes taken together", "assay_type": "cell-based", "source_text": "(§1) Raltitrexed was purchased from ApexBio (Houston, TX, USA), and CultureSure DMSO was obtained from Wako Pure Chemical (Osaka, Japan). T. b. brucei (Tbb) GuTat3.1, T. b. rhodesiense (Tbr) IL1501, T. b. gambiense (Tbg) IL1922 (isolated from Ivory Coast), T. evansi (Tev) Tansui (isolated from Taiwan), T. equiperdum (Teq) IVM-t1 and T. congolense (Tc) IL3000 were also obtained for this study. A 96-well Optical bottom plate was purchased from ThermoFisher […] (Waltham, MA, USA). CellTiter-Glo Luminescent cell viability reagent and GloMax plate reader were purchased from Promega Corporation (Fitchburg, WI, USA). Hiram's modified Isocove's Dulbecco's medium (HMI-9), HEPES, pyruvic acid sodium salt, BSA, thymidine, 2-mercaptoethanol, L-cysteine, bathocuproine and hypoxanthine were purchased from Sigma-Aldrich (Tokyo, Japan). A basic plate shaker was obtained from IKA® JAPAN (K.K., Osaka, Japan).\n(§2) The trypanocidal activity of raltitrexed was evaluated. The trypanosomes were cultured at 37° C. for Tbb, Tbg, Tbr, Teq and Tev and 33° C. for Tc in an incubator at 5% CO2 using HMI-9 supplemented with 20% heat-inactivated fetal calf serum, 60 mM HEPES, 10 μg/L insulin, 0.1 mM bathocuproine, 5.5 μg/L transferrin, 1 mM pyruvic acid sodium salt, 1 mM hypoxanthine, 16 μM thymidine, 6.7 ng/L sodium selenite, 0.0001% 2-$-mercaptoethanol, 2 mM L-cysteine and 0.4 g/L BSA. Trypanosomes were subcultured every two days. Raltitrexed was dissolved in DMSO:H2O (1:10, v/v). The effect of the solvent was assessed to be negligible on the parasite.\nInitially, raltitrexed was examined at two concentrations of 25 and 0.25 μg/ml to check the possible extended spectrum opportunities against six trypanosomes. […] This range was effective in the accurate estimation of the IC50 of the compound. […] After mixing, the bioluminescence of each well was measured using a Glomax plate reader."}, "[1]": {"molecular_target": "DHFR activity of TbDHFR-TS (Trypanosoma brucei brucei, UniProt Q27783)", "sequence (Q27783 whole entry)": "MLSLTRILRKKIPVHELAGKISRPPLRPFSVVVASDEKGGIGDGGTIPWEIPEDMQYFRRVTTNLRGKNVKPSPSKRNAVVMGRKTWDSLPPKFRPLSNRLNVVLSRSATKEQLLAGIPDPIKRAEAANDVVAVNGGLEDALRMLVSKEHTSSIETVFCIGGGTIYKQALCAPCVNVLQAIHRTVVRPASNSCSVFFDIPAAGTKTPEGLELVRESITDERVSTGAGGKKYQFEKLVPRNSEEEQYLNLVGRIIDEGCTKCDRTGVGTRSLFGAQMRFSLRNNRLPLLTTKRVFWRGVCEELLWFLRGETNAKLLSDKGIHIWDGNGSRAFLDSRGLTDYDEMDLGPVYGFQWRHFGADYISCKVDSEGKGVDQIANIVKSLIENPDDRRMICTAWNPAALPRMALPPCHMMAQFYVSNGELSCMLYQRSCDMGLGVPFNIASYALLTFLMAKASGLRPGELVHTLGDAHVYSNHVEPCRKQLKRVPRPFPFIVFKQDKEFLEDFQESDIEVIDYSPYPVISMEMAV", "conditions": "cited from earlier work"}, "[2]": {"tested_on": "T. congolense (Tc) IL3000", "test": "Anti-trypanosomal assay (CellTiter-Glo viability)", "assay_type": "cell-based", "conditions": "TcIL3000", "source_text": "as §1, §2\n(§3) Initially, raltitrexed was examined at two concentrations of 25 and 0.25 μg/ml to check the possible extended spectrum opportunities against six trypanosomes. […] This range was effective in the accurate estimation of the IC50 of the compound. After three days of cultivation, 25 μL of CellTiter-Glo Luminescent cell viability reagent were aliquoted into each well, and the plate was shaken for 500 shakes/min by an MS3 basic plate shaker for 30 s to facilitate cell lysis and release intracellular ATP. After mixing, the bioluminescence of each well was measured using a Glomax plate reader."}, "[3]": {"tested_on": "T. b. rhodesiense (Tbr) IL1501", "test": "Anti-trypanosomal assay (CellTiter-Glo viability)", "assay_type": "cell-based", "conditions": "TbrIL1501, mean ± SD", "source_text": "as §1, §2, §3"}, "T. evansi (Tev) Tansui": {"tested_on": "T. evansi (Tev) Tansui", "test": "Anti-trypanosomal assay (CellTiter-Glo viability)", "assay_type": "cell-based", "conditions": "mean ± SD", "source_text": "as §1, §2, §3"}, "[4]": {"tested_on": "T. b. gambiense (Tbg) IL1922", "test": "Anti-trypanosomal assay (CellTiter-Glo viability)", "assay_type": "cell-based", "conditions": "TbgIL1922, mean ± SD", "source_text": "as §1, §2, §3"}, "[5]": {"tested_on": "T. b. brucei (Tbb) GuTat3.1", "test": "Anti-trypanosomal assay (CellTiter-Glo viability)", "assay_type": "cell-based", "conditions": "TbbGUTat3.1, mean ± SD", "source_text": "as §1, §2, §3"}, "[6]": {"tested_on": "T. equiperdum (Teq) IVM-t1", "test": "Anti-trypanosomal assay (CellTiter-Glo viability)", "assay_type": "cell-based", "conditions": "mean ± SD", "source_text": "as §1, §2, §3"}, "TS activity of TbDHFR-TS": {"molecular_target": "TS activity of TbDHFR-TS (Trypanosoma brucei brucei, UniProt Q27783)", "sequence (Q27783 whole entry)": "as above", "conditions": "cited from earlier work"}},
  "note": "Read-outs that look alike come from different tables or passages of the source.",
  "data": [
    {"compound": "Nc1nc2[nH]cc(CCc3ccc(C(=O)N[C@@H](CCC(=O)O)C(=O)O)cc3)c2c(=O)[nH]1", "note": "[pemetrexed]", "values": [
      {"measurement": "potency against T. brucei", "setting": "T. brucei", "result": "Nanomolar potency"}
    ]},
    {"compound": "Cc1nc2ccc(CN(C)c3ccc(C(=O)N[C@@H](CCC(=O)O)C(=O)O)s3)cc2c(=O)[nH]1", "note": "[Raltitrexed]", "values": [
      {"measurement": "trypanocidal action on all test strains", "setting": "six Trypanosoma species; 25 μg/mL", "result": "suppressed all the test strains"},
      {"measurement": "IC50", "setting": "six Trypanosoma species; Trypanosoma, range across species, serial dilution 25 to 0.78 μg/mL, read-out: IC50 range over the Trypanosoma species", "result": "5.18 to 24.1", "unit": "µg/mL"},
      {"measurement": "IC50", "setting": "six Trypanosoma species; range against Trypanosoma, summary statement, read-out: estimated IC50 range", "result": "8.88 to 22.5", "unit": "µg/mL"},
      {"measurement": "IC50", "setting": "[1]", "result": 0.0931, "unit": "µM"},
      {"measurement": "Inhibition Rate at 25 μg/mL", "setting": "[2]; 25 μg/mL, mean ± SD", "result": "low trypanocidal rate"},
      {"measurement": "IC50", "setting": "[2]; Trypanosoma congolense, 72 h, three days of cultivation", "result": "> 25", "unit": "µg/mL"},
      {"measurement": "inhibition at 0.25 µg/mL", "setting": "[2]; Trypanosoma congolense, 0.25 μg/mL, mean ± SD, read-out: Inhibition Rate at 0.25 μg/mL", "result": 0, "unit": "%"},
      {"measurement": "inhibition at 25 µg/mL", "setting": "[2]; Trypanosoma congolense, 25 μg/mL, mean ± SD, read-out: Inhibition Rate at 25 μg/mL", "result": "1.77 ± 2.5", "unit": "%"},
      {"measurement": "Inhibition Rate at 25 μg/mL", "setting": "[3]; 25 μg/mL", "result": "99.68 ± 0.16", "unit": "%"},
      {"measurement": "inhibition at 0.25 µg/mL", "setting": "[3]; Trypanosoma brucei, RHODESIENSE, 0.25 μg/mL, read-out: Inhibition Rate at 0.25 μg/mL", "result": "1.01 ± 1.4", "unit": "%"},
      {"measurement": "inhibition at 25 µg/mL", "setting": "[3]; Trypanosoma brucei, RHODESIENSE, 25 μg/mL, read-out: Inhibition Rate at 25 μg/mL", "result": "> 99", "unit": "%"},
      {"measurement": "inhibition at 0.25 µg/mL", "setting": "T. evansi (Tev) Tansui; 0.25 μg/mL, read-out: Inhibition Rate at 0.25 μg/mL", "result": 0, "unit": "%"},
      {"measurement": "Inhibition Rate at 25 μg/mL", "setting": "T. evansi (Tev) Tansui; 25 μg/mL", "result": "99.9 ± 0.12", "unit": "%"},
      {"measurement": "inhibition at 25 µg/mL", "setting": "T. evansi (Tev) Tansui; 25 μg/mL, read-out: Inhibition Rate at 25 μg/mL", "result": "> 99", "unit": "%"},
      {"measurement": "Inhibition Rate at 25 μg/mL", "setting": "[4]; 25 μg/mL", "result": "99.6 ± 0.33", "unit": "%"},
      {"measurement": "inhibition at 0.25 µg/mL", "setting": "[4]; Trypanosoma brucei, GAMBIENSE, 0.25 μg/mL, read-out: Inhibition Rate at 0.25 μg/mL", "result": 0, "unit": "%"},
      {"measurement": "inhibition at 25 µg/mL", "setting": "[4]; Trypanosoma brucei, GAMBIENSE, 25 μg/mL, read-out: Inhibition Rate at 25 μg/mL", "result": "> 99", "unit": "%"},
      {"measurement": "Inhibition Rate at 25 μg/mL", "setting": "[5]; 25 μg/mL", "result": "99.47 ± 0.07", "unit": "%"},
      {"measurement": "inhibition at 0.25 µg/mL", "setting": "[5]; Trypanosoma brucei, 0.25 μg/mL, read-out: Inhibition Rate at 0.25 μg/mL", "result": 0, "unit": "%"},
      {"measurement": "inhibition at 25 µg/mL", "setting": "[5]; Trypanosoma brucei, 25 μg/mL, read-out: Inhibition Rate at 25 μg/mL", "result": "> 99", "unit": "%"},
      {"measurement": "Inhibition Rate at 25 μg/mL", "setting": "[6]; 25 μg/mL", "result": "99.8 ± 0.027", "unit": "%"},
      {"measurement": "inhibition at 0.25 µg/mL", "setting": "[6]; Trypanosoma equiperdum, 0.25 μg/mL, read-out: Inhibition Rate at 0.25 μg/mL", "result": 0, "unit": "%"},
      {"measurement": "inhibition at 25 µg/mL", "setting": "[6]; Trypanosoma equiperdum, 25 μg/mL, read-out: Inhibition Rate at 25 μg/mL", "result": "> 99", "unit": "%"},
      {"measurement": "IC50", "setting": "TS activity of TbDHFR-TS", "result": 0.215, "unit": "µM"},
      {"measurement": "effect of adding folate and thymidine on effectiveness", "setting": "T. brucei; folate and/or thymidine added to the medium", "result": "addition of thymidine decreased the effectiveness of raltitrexed more so than the addition of folate"},
      {"measurement": "potency against T. brucei", "setting": "T. brucei", "result": "Nanomolar potency"}
    ]},
    {"compound": "CN(Cc1cnc2nc(N)nc(N)c2n1)c1ccc(C(=O)N[C@@H](CCC(=O)O)C(=O)O)cc1", "note": "[methotrexate]", "values": [
      {"measurement": "potency against T. brucei", "setting": "T. brucei", "result": "Nanomolar potency"}
    ]}
  ]
}
